The values below are quoted from earlier work in US20260229307A1, “CLEAVED NEOEPITOPES” (IOGENETICS, LLC, priority 2023, published 2026).

Structures are written as SMILES.

For series [1] the following is noted: human muscular dystrophy trial.
For series [2] the following is noted: relative to E64.

Regarding `CCOC(=O)[C@H]1O[C@@H]1C(=O)N[C@@H](CC(C)C)C(=O)NCCC(C)C` [aloxistatin], the safety in humans entry in series [1] is “demonstrate the safety”. The “cell permeability and adsorption” value in series [2] is “improved cell permeability and adsorption”.
